What was measured:
[1] = test system: Methylobacterium extorquens; test: Intracellular ATP level by ATP luminescence method; type: cell-based
Procedure: An M. extorquens cell suspension was prepared according to the following procedures. M. extorquens was cultured with agitation in 5 mL of SCD liquid medium (Nissui Pharmaceutical Co., Ltd.) for 72 hours at 25° C. The culture solution (medium) was dispensed into tubes, and then centrifuged for 10 minutes at 10000 rpm, so as to collect cells onto the tube bottoms. Supernatant was removed, and then water was added instead, to suspend cells. Centrifugation was performed again for 10 minutes at 10000 rpm, so as to collect cells onto the tube bottoms. This step was repeated 3 times, medium components were removed, and thus a cell suspension was prepared. Subsequently, the cells were cultured with agitation in water for injection for 3 days at 37° C., so that a cell suspension for ATP luminescence measurement was prepared. […]
Reagents included in a Lucifer HS set (Kikkoman Biochemifa Company) were used as reagents for ATP luminescence measurement. In addition, the Lucifer HS set comprises an ATP elimination enzyme, an ATP extraction reagent, and a luminescent reagent included therewith. […]
100 μL of an ATP extraction solution was added to 100 μL of the mixture after heating. 50 μL of each sample after ATP extraction was added to 50 μL of the luminescent reagent. The thus generated luminescence was measured.
10 μL each of glucose (Wako Pure Chemical Industries, Ltd.), alanine (Wako Pure Chemical Industries, Ltd.), ATPase, 10% methanol, and a phosphate buffer (pH 7.4) (Invitrogen) were added to 50 μL of the M. extorquens cell suspension, thereby preparing a total of 100 μL of a mixture. When glucose, alanine, and methanol were not added, the solution was adjusted to a total 100 μL volume with a phosphate buffer (Table 3, sample Nos. 1 to 5). The mixture was heated at 37° C. for 30 minutes. In the extracellular ATP removal•intracellular ATP increase step (for removing ATP outside of viable cells and increasing ATP within viable cells), 100 μL of an ATP extraction solution was added to 100 μL of the mixture (Table 3, sample Nos. 1 to 4). For comparison of the ATP extraction efficiency of methanol, in the ATP extraction step, 100 μL, of the mixture was mixed with 100 μL of a 1% methanol-containing ATP extraction solution (Table 3, sample No. 5). After ATP extraction, 50 μL of the sample was added to 50 μL of the luminescent reagent, and then the thus generated luminescence was measured. […]
10 μL each of glucose, alanine, ATPase, and if necessary, 10 (v/v) % methanol were added to 50 μL of the M. extorquens cell suspension. Finally, a phosphate buffer (pH 7.4) (Invitrogen) was added for adjustment to a total 100 μL volume. The final concentrations of glucose and alanine ranged from 0.1 mM to 100 mM, and the final concentrations of ATPase and methanol were 10 (v/v) % and 1 (v/v) %, respectively. Each mixture was heated at 37° C. for 30 minutes. 100 μL of an ATP extraction solution was added to 100 μL of the heated mixture, and then 50 μL of sample after ATP extraction was added to 50 μL of a luminescent reagent. The thus generated luminescence was measured.
10 μL each of glucose, alanine, ATPase, and methanol were added to 50 μL of the M. extorquens cell suspension. Finally, a phosphate buffer (pH 7.4) (Invitrogen) was added for adjustment to a total 100 μL volume. The final concentrations of glucose and alanine were each 0.1 mM, the final ATPase concentration was 10 (v/v) %, and the final methanol concentrations ranged from 0% to 80%. Each mixture was heated at 37° C. for 30 minutes. After heating, to remove methanol-containing mixtures, all mixtures were subjected to centrifugal filtration (1 min, 2000 rpm) using Ultrafree-MC, and then mixtures as filtrates were discarded. Subsequently, 200 μL of water was added onto the filter and filtrated to wash the filter. In addition, washing was repeated 5 times. […]

[2] = test system: ATP•luciferase•luciferin reaction; test: Effect of methanol on ATP luminescent reaction; type: biochemical; settings: 1000 amol ATP/50 μL; for Relative luminescence: methanol-free ATP solution = 100
Procedure: 1 mL of an ATP solution (2×10^5 amol ATP/mL, Kikkoman Biochemifa Company Lucifer ATP standard reagent set) was mixed with 10 μl to 5 mL of 100% methanol (Wako Pure Chemical Industries, Ltd.). Water (Invitrogen) was further added to each solution, and thus ATP/methanol solutions (10 mL each) with final methanol concentrations ranging from 0.1 to 50 (v/v) % were prepared (ATP concentration: 2×10^4 amol ATP/mL). Subsequently, 50 μL of the ATP/methanol solution and 50 μL of a luminescent reagent (Kikkoman Biochemifa Company, included with a Lucifer HS set) were mixed to cause a luminescent reaction to take place. The resulting luminescence levels were measured by photocounting using a photomultiplier.
For comparison, 1 mL of a methanol-free ATP solution (2×10^4 amol ATP/mL) was prepared. Subsequently, 50 μL of an ATP solution and 50 μL of the luminescent reagent were mixed to cause a luminescent reaction to take place, and then the luminescence level was measured.

[3] = test system: ATPase; test: Residual ATPase activity according to methanol concentrations; type: biochemical; settings: 37° C. for 30 minutes
Procedure: 10 μL of an ATPase-containing ATP elimination solution (Kikkoman Biochemifa Company, ATP elimination reagent included with a Lucifer HS set) was mixed with 80 μL of methanol, the concentration of which had been adjusted. An ATP solution (2×10^6 amol/10 μL) was added to the solution and then it was left to stand at 37° C. for 30 minutes. In addition, the final methanol concentrations were adjusted to 0.1 to 80 (v/v) %.
To measure the remaining ATP level after the addition of the above mixture to a luminescent reagent, the mixture was diluted in water to a methanol concentration of 0.1 (v/v) % or less, assuring that the methanol would not affect the ATP luminescent reaction (Reference Example 2, Table 2). Subsequently, 50 μL of the diluted solution (1×10^3 amol ATP/50 μL) was added to 50 μL of the luminescent reagent, and then the luminescence level was measured. Furthermore, an ATP solution (1×10^3 amol/50 μL) to which no ATPase had been added was prepared. The luminescence level according to the ATP solution was also measured. The luminescence level of the ATPase-free ATP solution was considered almost the same as that of an ATP solution to which ATP had been added after the loss of ATPase activity.

[4] = test system: Bacillus subtilis; test: Cell viability (colony count) after methanol exposure; type: cell-based; settings: 80 (v/v) % methanol, 1 minute; colony count at 0% methanol = 100%
Procedure: (§1) 10 μL of a cell suspension and 90 μL of methanol, the concentration of which had been adjusted, were mixed, thereby preparing 100 μL of a cell/methanol suspension. The final methanol concentrations ranged from 0 to 80 (v/v) %. As microorganisms (cells), Bacillus subtilis (bacterium, spores, ATCC 6633), Staphylococcus aureus (bacterium, aerobic, ATCC 6538), and Candida albicans (fungus, yeast, ATCC 10231) were used. Each cell suspension was mixed with methanol and then the mixture was left to stand for 1 minute. In the case of bacteria, the mixture was applied and spread over R2A medium (Nissui Pharmaceutical Co., Ltd.) and then cultured at 25° C. for 7 days. In the case of fungi, the mixture was applied and spread over PDA medium (Nissui Pharmaceutical Co., Ltd.) and then cultured at 25° C. for 5 days. After culture, the colony count was then measured according to each methanol concentration. The colony count in the case of 0% methanol was designated as 100% cell viability. Cell viability according to each methanol concentration was examined.

[5] = test system: Candida albicans; test: as above; type: cell-based; settings: maximum of 30 (v/v) % methanol, 1 minute; colony count at 0% methanol = 100%
Procedure: as §1

[6] = test system: Staphylococcus aureus; test: as above; type: cell-based; settings: maximum of 30 (v/v) % methanol, 1 minute; colony count at 0% methanol = 100%
Procedure: as §1

CO [Methanol, methanol]
Intracellular ATP level of M. extorquens ([1]; 1% methanol added to 0.1 mM alanine and 0.1 mM glucose (FIG. 4C)): 1.2 amol/CFU | Intracellular ATP level of M. extorquens, % of the maximum ([1]; methanol 0.1% to 20%, 0.1 mM glucose, 0.1 mM alanine, 10% ATPase, filtration): ≥ 70% | Intracellular ATP level of M. extorquens ([1]; methanol 0.1% to 20%, 0.1 mM glucose, 0.1 mM alanine, 10% ATPase, filtration (FIGS. 5A and B)): 1.1 amol/CFU | Intracellular ATP level of M. extorquens ([1]; methanol 0.5%, 0.1 mM glucose, 0.1 mM alanine, 10% ATPase, filtration (FIG. 5A)): 1.5 amol/CFU | Intracellular ATP level of M. extorquens ([1]; methanol 30% or more, 0.1 mM glucose, 0.1 mM alanine, 10% ATPase, filtration (FIG. 5B)): 0.15 amol/CFU | Decrease of intracellular ATP level of M. extorquens ([1]; methanol 30% or more, relative to the maximum at 0.5% methanol): 90% | Luminescence level ([2]; 0.1% Methanol): 12703 CPS | Relative luminescence ([2]; 0.1% Methanol): 110% | Luminescence level ([2]; 1% Methanol): 10200 CPS | Relative luminescence ([2]; 1% Methanol): 88% | Luminescence level ([2]; 10% Methanol): 3345 CPS | Relative luminescence ([2]; 10% Methanol): 29% | Luminescence level ([2]; 50% Methanol): 13 CPS | Luminescence level ([2]; 50% Methanol, listed as methanol): almost no fluorescence | Relative luminescence ([2]; 50% Methanol): 0% | Residual ATPase activity ([3]; methanol concentration 80 (v/v) %): 20% | Residual ATPase activity ([3]; methanol concentrations 0 to 50 (v/v) %): retained the activity | Cell viability of B. subtilis [4]: 100% | Cell viability of C. albicans [5]: ≥ 90% | Cell viability of S. aureus [6]: ≥ 90%

C[C@H](N)C(=O)O [alanine]
Intracellular ATP level of M. extorquens ([1]; alanine 1 mM or less in the presence of 1 (v/v) % methanol and 100 mM glucose (FIG. 4A)): 0.9 amol/CFU

O=C[C@H](O)[C@@H](O)[C@H](O)[C@H](O)CO [glucose]
Intracellular ATP level of M. extorquens ([1]; glucose varied 0.1 mM to 100 mM in the presence of 1 (v/v) % methanol and 50 mM alanine (FIG. 4B)): about 0.5 amol/CFU
